# Assay results published in US12097202B2 (Kadmon Corporation, LLC, priority 2022, dated 2024).
# Test system: patients with chronic GVHD
# Assay: Example 2: phase II randomized study of belumosudil (KD025-213) in cGVHD, efficacy and safety;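 note: allogeneic HCT recipients aged ≥12 years with persistent cGVHD after two to five earlier systemic treatment lines, responses judged by site investigators, 12-month analysis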
# Conditions: for Cough / Diarrhea / Dyspnea / Fatigue / Headache / Muscle spasms / Nausea / Peripheral edema / Vomiting: All grades; for Hyperglycemia / Hypertension / Pneumonia: Grade ≥3; for ALT increased / AST increased / Bilirubin conjugated increased / Blood alkaline phosphatase increased / GGT increased / Hypoalbuminemia / LFT increased / Transaminases increased: Liver-related AE; for Clinically significant improvement from baseline (LSS), Overall: decrease ≥7 points in LSS score
# [1] = 200 mg BID (n = 66), of subjects with organ involved
# [2] = 200 mg QD (n = 66), of subjects with organ involved
# [3] = Total (N = 132), of subjects with organ involved
# [4] = Total, N=132, mITT, listed as Belumosudil
# From the text: Concomitant treatment with supportive care therapies for chronic GVHD was permitted. […] Initiation of new systemic chronic GVHD therapy while on study was not permitted.
# Eligible subjects were allogeneic hematopoietic cell transplant recipients aged ≥12 years with persistent cGVHD manifestations after receiving 2 to 5 prior systemic lines of therapy. Subjects were required to be receiving stable corticosteroid therapy for 2 weeks prior to screening and to have a Karnofsky or Lansky Performance Status Scale score≥60. Certain concurrent immunosuppressive medications were allowed because drug-drug interactions were not anticipated.
# Randomization was stratified (1:1) by cGVHD severity and prior exposure to ibrutinib.
# All responses were assessed by the study site investigators. Secondary end points included duration of response (DOR), time to response, changes in LSS summary score, failure-free survival (FFS), corticosteroid dose reductions, and overall survival (OS). DOR was measured from the time of initial PR or CR until documented progression from best response of cGVHD, time from initial response to start of additional systemic cGVHD therapy, or death. The 7-day LSS summary score was calculated based on the developer recommendations and was compared with the score from baseline; an improvement ≥7 points was considered clinically meaningful. […] Relative dose intensity (RDI) was used as a surrogate measure of drug tolerability and was defined as actual dose intensity/planned dose intensity, where dose intensity was defined as the cumulative dose over the duration of exposure (mg/d). Actual dose intensity captured the sum of actual doses received over the duration of exposure and incorporated dose reductions and/or interruptions.
# The Hochberg procedure was used for multiplicity adjustment for the primary end point of best ORR. […] CI was calculated using the Clopper-Pearson interval (exact) method.
structure (smiles),measurement,setting,value
"CC(C)NC(=O)COc1cccc(-c2nc(Nc3ccc4[nH]ncc4c3)c3ccccc3n2)c1 [belumosudil, 2-{3-[4-(1H-indazol-5-ylamino)-2-quinazolinyl]phenoxy}-N-(propan-2-yl) acetamide]","CR, Eyes",[1],(12) %
same,"CR, Joints and fascia",[1],(20) %
same,"CR, Lower GI",[1],(57) %
same,"ORR, Esophagus",[1],(42) %
same,"ORR, Lower GI",[1],(71) %
same,"ORR, Lungs",[1],(22) %
same,"ORR, Mouth",[1],(57) %
same,"ORR, Skin",[1],(42) %
same,"ORR, Upper GI",[1],(40) %
same,"PR, Joints and fascia",[1],(47) %
same,"PR, Lower GI",[1],(14) %
same,"CR, Joints and fascia",[2],(20) %
same,"CR, Liver",[2],(22) %
same,"CR, Lungs",[2],(17) %
same,"CR, Upper GI",[2],(54) %
same,"ORR, Eyes",[2],(33) %
same,"ORR, Joints and fascia",[2],(75) %
same,"ORR, Liver",[2],(33) %
same,"ORR, Lower GI",[2],(67) %
same,"ORR, Lungs",[2],(29) %
same,"ORR, Mouth",[2],(53) %
same,"ORR, Skin",[2],(33) %
same,"ORR, Upper GI",[2],(62) %
same,"PR, Skin",[2],(18) %
same,"Clinically significant improvement from baseline (LSS), Nonresponder",200 mg daily,(29) %
same,Any AE,200 mg daily (n = 66),(99) %
same,Deaths,200 mg daily (n = 66),(12) %
same,Drug-related AEs,200 mg daily (n = 66),(74) %
same,Drug-related SAEs,200 mg daily (n = 66),(8) %
same,Grade ≥3 AEs,200 mg daily (n = 66),(56) %
same,Liver-related AEs,200 mg daily (n = 66),(18) %
same,SAEs,200 mg daily (n = 66),(41) %
same,CS discontinuation,"200 mg daily, n=66, mITT",(20) %
same,FFS at 6 mo,"200 mg daily, n=66, mITT",73%
same,"ORR (best, any time)","200 mg daily, n=66, mITT",(74) %
same,ORR for responses occurring within 6 mo of treatment,"200 mg daily, n=66, mITT",(71) %
same,ORR for responses occurring within 12 mo of treatment,"200 mg daily, n=66, mITT",(74) %
same,"PR, within 6 mo of treatment","200 mg daily, n=66, mITT",(68) %
same,"PR, within 12 mo of treatment","200 mg daily, n=66, mITT",(68) %
same,"Clinically significant improvement from baseline (LSS), Nonresponder",200 mg twice daily,(33) %
same,"Clinically significant improvement from baseline (LSS), Responder",200 mg twice daily,(71) %
same,Any AE,200 mg twice daily (n = 66),(100) %
same,Deaths,200 mg twice daily (n = 66),(9) %
same,Drug-related AEs,200 mg twice daily (n = 66),(61) %
same,Drug-related SAEs,200 mg twice daily (n = 66),(3) %
same,Grade ≥3 AEs,200 mg twice daily (n = 66),(52) %
same,Liver-related AEs,200 mg twice daily (n = 66),(29) %
same,SAEs,200 mg twice daily (n = 66),(35) %
same,FFS at 6 mo,"200 mg twice daily, n=66, mITT",76%
same,"ORR (best, any time)","200 mg twice daily, n=66, mITT",(77) %
same,"PR, within 6 mo of treatment","200 mg twice daily, n=66, mITT",(71) %
same,"PR, within 12 mo of treatment","200 mg twice daily, n=66, mITT",(73) %
same,Cough,200 mg daily (n = 66),(30) %
same,Diarrhea,200 mg daily (n = 66),(35) %
same,Dyspnea,200 mg daily (n = 66),(32) %
same,Fatigue,200 mg daily (n = 66),(46) %
same,Headache,200 mg daily (n = 66),(20) %
same,Muscle spasms,200 mg daily (n = 66),(20) %
same,Nausea,200 mg daily (n = 66),(35) %
same,Peripheral edema,200 mg daily (n = 66),(26) %
same,Vomiting,200 mg daily (n = 66),(27) %
same,Cough,200 mg twice daily (n = 66),(26) %
same,Diarrhea,200 mg twice daily (n = 66),(32) %
same,Dyspnea,200 mg twice daily (n = 66),(18) %
same,Fatigue,200 mg twice daily (n = 66),(30) %
same,Headache,200 mg twice daily (n = 66),(27) %
same,Muscle spasms,200 mg twice daily (n = 66),(20) %
same,Nausea,200 mg twice daily (n = 66),(27) %
same,Peripheral edema,200 mg twice daily (n = 66),(20) %
same,Vomiting,200 mg twice daily (n = 66),(15) %
same,Cough,Total (N = 132),(28) %
same,Diarrhea,Total (N = 132),(33) %
same,Dyspnea,Total (N = 132),(25) %
same,Fatigue,Total (N = 132),(38) %
same,Headache,Total (N = 132),(24) %
same,Muscle spasms,Total (N = 132),(20) %
same,Nausea,Total (N = 132),(31) %
same,Peripheral edema,Total (N = 132),(23) %
same,Vomiting,Total (N = 132),(21) %
same,Hyperglycemia,200 mg daily (n = 66),(5) %
same,Hypertension,200 mg daily (n = 66),(6) %
same,Pneumonia,200 mg daily (n = 66),(9) %
same,Hyperglycemia,200 mg twice daily (n = 66),(5) %
same,Hypertension,200 mg twice daily (n = 66),(6) %
same,Pneumonia,200 mg twice daily (n = 66),(6) %
same,Hyperglycemia,Total (N = 132),(5) %
same,Hypertension,Total (N = 132),(6) %
same,Pneumonia,Total (N = 132),(8) %
same,ALT increased,200 mg daily (n = 66),(6) %
same,AST increased,200 mg daily (n = 66),(8) %
same,Bilirubin conjugated increased,200 mg daily (n = 66),(2) %
same,Blood alkaline phosphatase increased,200 mg daily (n = 66),(6) %
same,GGT increased,200 mg daily (n = 66),(9) %
same,Hypoalbuminemia,200 mg daily (n = 66),(3) %
same,LFT increased,200 mg daily (n = 66),(2) %
same,Transaminases increased,200 mg daily (n = 66),(2) %
same,ALT increased,200 mg twice daily (n = 66),(11) %
same,AST increased,200 mg twice daily (n = 66),(12) %
same,Bilirubin conjugated increased,200 mg twice daily (n = 66),0%
same,Blood alkaline phosphatase increased,200 mg twice daily (n = 66),(9) %
same,GGT increased,200 mg twice daily (n = 66),(15) %
same,Hypoalbuminemia,200 mg twice daily (n = 66),(3) %
same,LFT increased,200 mg twice daily (n = 66),0%
same,Transaminases increased,200 mg twice daily (n = 66),(2) %
same,ALT increased,Total (N = 132),(8) %
same,AST increased,Total (N = 132),(10) %
same,Bilirubin conjugated increased,Total (N = 132),(1) %
same,Blood alkaline phosphatase increased,Total (N = 132),(8) %
same,GGT increased,Total (N = 132),(12) %
same,Hypoalbuminemia,Total (N = 132),(3) %
same,LFT increased,Total (N = 132),(1) %
same,Transaminases increased,Total (N = 132),(2) %
same,"Clinically significant improvement from baseline (LSS), Nonresponder",Total,(31) %
same,"Clinically significant improvement from baseline (LSS), Responder",Total,(70) %
same,Any AE,Total (N = 132),(99) %
same,Drug-related AEs,Total (N = 132),(67) %
same,Drug-related SAEs,Total (N = 132),(5) %
same,Grade ≥3 AEs,Total (N = 132),(54) %
same,Liver-related AEs,Total (N = 132),(24) %
same,SAEs,Total (N = 132),(38) %
same,"CR, Esophagus",[3],(45) %
same,"CR, Eyes",[3],(14) %
same,"CR, Joints and fascia",[3],(20) %
same,"CR, Liver",[3],(31) %
same,"CR, Lower GI",[3],(62) %
same,"CR, Lungs",[3],(13) %
same,"CR, Mouth",[3],(44) %
same,"CR, Skin",[3],(16) %
same,"CR, Upper GI",[3],(48) %
same,"ORR, Esophagus",[3],(45) %
same,"ORR, Eyes",[3],(42) %
same,"ORR, Joints and fascia",[3],(71) %
same,"ORR, Liver",[3],(39) %
same,"ORR, Lower GI",[3],(69) %
same,"ORR, Lungs",[3],(26) %
same,"ORR, Mouth",[3],(56) %
same,"ORR, Skin",[3],(37) %
same,"ORR, Upper GI",[3],(52) %
same,"PR, Esophagus",[3],0%
same,"PR, Eyes",[3],(28) %
same,"PR, Joints and fascia",[3],(51) %
same,"PR, Liver",[3],(8) %
same,"PR, Lower GI",[3],(8) %
same,"PR, Lungs",[3],(13) %
same,"PR, Mouth",[3],(11) %
same,"PR, Skin",[3],(21) %
same,"PR, Upper GI",[3],(4) %
same,Deaths,"Total (N = 132), six during LTFU",(11) %
same,"CR, within 6 mo of treatment","Total, N=132, mITT",(2) %
same,"CR, within 12 mo of treatment","Total, N=132, mITT",(5) %
same,FFS at 6 mo,"Total, N=132, mITT",75%
same,FFS at 12 mo,"Total, N=132, mITT",56%
same,"Mean change in CS dose from baseline, Overall","Total, N=132, mITT",−45%
same,Median CS reduction from baseline to greatest reduction,"Total, N=132, mITT",50%
same,"ORR (best, any time)","Total, N=132, mITT",(76) %
same,ORR for responses occurring within 6 mo of treatment,"Total, N=132, mITT",(72) %
same,ORR for responses occurring within 12 mo of treatment,"Total, N=132, mITT",(75) %
same,"PR, within 6 mo of treatment","Total, N=132, mITT",(70) %
same,"PR, within 12 mo of treatment","Total, N=132, mITT",(71) %
same,Proportion with CS reduction,"Total, N=132, mITT",65%
same,CS discontinuation,[4],21) %
same,Proportion with CS reduction,[4],(65) %
same,"Clinically significant improvement from baseline (LSS), Overall","200 mg daily, n=66, mITT",59%
same,"Clinically significant improvement from baseline (LSS), Overall","200 mg daily, n=66, mITT, listed as Belumosudil",(59) %
same,"Clinically significant improvement from baseline (LSS), Overall","200 mg twice daily, n=66, mITT",62%
same,"Clinically significant improvement from baseline (LSS), Overall","200 mg twice daily, n=66, mITT, listed as Belumosudil",(62) %
same,"Clinically significant improvement from baseline (LSS), Overall","Total, N=132, mITT",(61) %
same,Grade ≥3 anemia,in vivo,3%
same,Grade ≥3 cytopenias,in vivo,< 4%
same,Grade ≥3 neutropenia,in vivo,2%
same,Grade ≥3 thrombocytopenia,in vivo,2%
same,SAE: pneumonia,in vivo,7%
same,discontinued because of overall AEs,in vivo,21%
same,discontinued because of possible drug-related AEs,in vivo,12%
same,discontinued because of progression of cGVHD,in vivo,16%
same,discontinued because of progression of underlying malignant disease,in vivo,4%
same,grade 3 or 4 AE: hyperglycemia,in vivo,5%
same,grade 3 or 4 AE: hypertension,in vivo,6%
same,grade 3 or 4 AE: pneumonia,in vivo,8%
same,liver-related AE: increased GGT,in vivo,12%
same,subjects who discontinued calcineurin inhibitor (CNI) therapy,in vivo,22%
same,subjects who received an RDI >95%,in vivo,Eighty-one
same,subjects with >1 SAE,in vivo,Thirty eight
same,subjects with increased liver function tests (LFTs),in vivo,Twenty-four
same,"organ-specific best ORR, esophagus","mITT, pooled",45%
same,"organ-specific best ORR, eyes","mITT, pooled",42%
same,"organ-specific best ORR, joints/fascia","mITT, pooled",71%
same,"organ-specific best ORR, liver","mITT, pooled",39%
same,"organ-specific best ORR, lower GI tract","mITT, pooled",69%
same,"organ-specific best ORR, lungs","mITT, pooled",26%
same,"organ-specific best ORR, mouth","mITT, pooled",55%
same,"organ-specific best ORR, skin","mITT, pooled",37%
same,"organ-specific best ORR, upper gastrointestinal (GI) tract","mITT, pooled",52%
same,nonrelapse mortality (NRM) rate,overall,7%
same,share of responses seen after 6 to 12 months of treatment,pooled,9%
same,ORRs observed in all subgroups,"pooled across arms, mITT",61-85%
